According to patent US20120029187A1, “HALOALKYLSULFONANILIDE DERIVATIVE” (Nissan Chemical Industries, Ltd., priority 2009, published 2012):

Experiments:
Type in all cases: in vivo
common lambsquater [1] = experiment: Test Example 4: herbicidal effect in foliage treatment; conditions: dose 3.2 g/a, three weeks after application
How it was run: (§1)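 Foliar spray, post-emergence: 14-day-old greenhouse plants (25–30° C, diluvial soil) treated with water-diluted EC at set g/a doses; visual herbicidal score at 3 wk post-application.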

large crabgrass [2] = experiment: as above; conditions: dose 3.2 g/a, three weeks after application
How it was run: as §1

barnyardgrass [3] = experiment: as above; conditions: dose 3.2 g/a, three weeks after application
How it was run: as §1

beadstraw [4] = experiment: as above; conditions: dose 3.2 g/a, three weeks after application
How it was run: as §1

posumbu knotweed [5] = experiment: as above; conditions: dose 3.2 g/a, three weeks after application
How it was run: as §1

redroot pigweed [6] = experiment: as above; conditions: dose 3.2 g/a, three weeks after application
How it was run: as §1

velvetleaf [7] = experiment: as above; conditions: dose 3.2 g/a, three weeks after application
How it was run: as §1

giant foxtail [8] = experiment: as above; conditions: dose 3.2 g/a, three weeks after application
How it was run: as §1

Italian ryegrass [9] = experiment: as above; conditions: dose 3.2 g/a, three weeks after application
How it was run: as §1

common chickweed [10] = experiment: as above; conditions: dose 3.2 g/a, three weeks after application
How it was run: as §1

water foxtail [11] = experiment: as above; conditions: dose 3.2 g/a, three weeks after application
How it was run: as §1

common ragweed [12] = experiment: as above; conditions: dose 3.2 g/a, three weeks after application
How it was run: as §1

bulrush [13] = experiment: Test Example 2: herbicidal effects during the vegetation period under submerged conditions; conditions: treatment during the vegetation period under submerged conditions; dose 2.52 g/a
How it was run: (§2)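 Barnyardgrass, bulrush and ducksalad were co-sown in alluvial soil flooded to 4 cm and grown in a greenhouse at 25 to 30° C. At the 1- or 2-leaf stage, water-diluted emulsifiable concentrates went onto the water surface at set doses (g/a). Herbicidal effect was scored three weeks later on a graded scale.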

barnyardgrass [14] = experiment: as above; conditions: treatment during the vegetation period under submerged conditions; dose 2.52 g/a
How it was run: as §2

ducksalad [15] = experiment: as above; conditions: treatment during the vegetation period under submerged conditions; dose 2.52 g/a
How it was run: as §2

bulrush [16] = experiment: Test Example 1: herbicidal effects in preemergence treatment under submerged conditions; conditions: dose 2.52 g/a
How it was run: (§3)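 Submerged conditions, 4 cm water over alluvial soil. Weeds sown and 2.5-leaf rice transplanted; compound applied preemergence to water surface, doses in g per are. Greenhouse, 25 to 30° C., three weeks, then 0–5 mortality rating.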

barnyardgrass [17] = experiment: as above; conditions: dose 2.52 g/a
How it was run: as §3

ducksalad [18] = experiment: as above; conditions: dose 2.52 g/a
How it was run: as §3

common lambsquater [19] = experiment: Test Example 3: herbicidal effects in soil treatment; conditions: dose 3.2 g/a
How it was run: (§4)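 Seeds were sown in sterilized diluvial soil and covered with about 1.5 cm of soil. Compounds, formulated as emulsifiable concentrates and diluted with water, were sprayed evenly over the soil surface at set doses in g/a. Herbicidal effect was scored on a rating scale three weeks later.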

large crabgrass [20] = experiment: as above; conditions: dose 3.2 g/a
How it was run: as §4

barnyardgrass [21] = experiment: as above; conditions: dose 3.2 g/a
How it was run: as §4

beadstraw [22] = experiment: as above; conditions: dose 3.2 g/a
How it was run: as §4

posumbu knotweed [23] = experiment: as above; conditions: dose 3.2 g/a
How it was run: as §4

redroot pigweed [24] = experiment: as above; conditions: dose 3.2 g/a
How it was run: as §4

velvetleaf [25] = experiment: as above; conditions: dose 3.2 g/a
How it was run: as §4

giant foxtail [26] = experiment: as above; conditions: dose 3.2 g/a
How it was run: as §4

Italian ryegrass [27] = experiment: as above; conditions: dose 3.2 g/a
How it was run: as §4

common chickweed [28] = experiment: as above; conditions: dose 3.2 g/a
How it was run: as §4

water foxtail [29] = experiment: as above; conditions: dose 3.2 g/a
How it was run: as §4

common ragweed [30] = experiment: as above; conditions: dose 3.2 g/a
How it was run: as §4

transplanted rice = experiment: Test Example 1: preemergence treatment under submerged conditions, effect on crop; conditions: dose 2.52 g/a
How it was run: as §3

For `CCC(=O)N(c1ccccc1CN1COC2(CCC2)CC1=O)S(=O)(=O)C(F)(F)F` [II-62], the “L: common lambsquater, herbicidal effect” value (common lambsquater [1]) was 4 (mortality of at least 70% and less than 90%), the “D: large crabgrass, herbicidal effect” value (large crabgrass [2]) was 5 (mortality of 90% or above (nearly complete death)) and the “A: barnyardgrass, herbicidal effect” value (barnyardgrass [3]) was 5 (mortality of 90% or above (nearly complete death)). For the same compound, the “O: beadstraw, herbicidal effect” value (beadstraw [4]) was 4 (mortality of at least 70% and less than 90%), the “M: posumbu knotweed, herbicidal effect” value (posumbu knotweed [5]) was 4 (mortality of at least 70% and less than 90%) and the “K: redroot pigweed, herbicidal effect” value (redroot pigweed [6]) was 3 (mortality of at least 40% and less than 70%). For the same compound, the “I: velvetleaf, herbicidal effect” value (velvetleaf [7]) was 5 (mortality of 90% or above (nearly complete death)), the “E: giant foxtail, herbicidal effect” value (giant foxtail [8]) was 5 (mortality of 90% or above (nearly complete death)) and the “H: Italian ryegrass, herbicidal effect” value (Italian ryegrass [9]) was 4 (mortality of at least 70% and less than 90%). The “N: common chickweed, herbicidal effect” value (common chickweed [10]) was 4 (mortality of at least 70% and less than 90%), the “G: water foxtail, herbicidal effect” value (water foxtail [11]) was 5 (mortality of 90% or above (nearly complete death)) and the “J: common ragweed, herbicidal effect” value (common ragweed [12]) was 4 (mortality of at least 70% and less than 90%). For the same compound, the “B: bulrush, herbicidal effect (evaluation scale 0-5)” value (from here on “B: bulrush, herbicidal effect”) (bulrush [13]) was 5 (mortality of 90% or above (nearly complete death)), the “A: barnyardgrass, herbicidal effect (evaluation scale 0-5)” value (barnyardgrass [14]) was 5 (mortality of 90% or above (nearly complete death)) and the “C: ducksalad, herbicidal effect (evaluation scale 0-5)” value (“C: ducksalad, herbicidal effect” below) (ducksalad [15]) was 5 (mortality of 90% or above (nearly complete death)). For the same compound, the “B: bulrush, herbicidal effect” value (bulrush [16]) was 5 (mortality of 90% or above (nearly complete death)), the “A: barnyardgrass, herbicidal effect (evaluation scale 0-5)” value (barnyardgrass [17]) was 5 (mortality of 90% or above (nearly complete death)) and the “C: ducksalad, herbicidal effect” value (ducksalad [18]) was 5 (mortality of 90% or above (nearly complete death)). The “L: common lambsquater, herbicidal effect (evaluation scale 0-5)” value (common lambsquater [19]) was 4 (mortality of at least 70% and less than 90%), the “D: large crabgrass, herbicidal effect (evaluation scale 0-5)” value (large crabgrass [20]) was 5 (mortality of 90% or above (nearly complete death)) and the “A: barnyardgrass, herbicidal effect (evaluation scale 0-5)” value (barnyardgrass [21]) was 5 (mortality of 90% or above (nearly complete death)). For the same compound, the “O: beadstraw, herbicidal effect (evaluation scale 0-5)” value (beadstraw [22]) was 4 (mortality of at least 70% and less than 90%), the “M: posumbu knotweed, herbicidal effect (evaluation scale 0-5)” value (posumbu knotweed [23]) was 5 (mortality of 90% or above (nearly complete death)) and the “K: redroot pigweed, herbicidal effect (evaluation scale 0-5)” value (redroot pigweed [24]) was 4 (mortality of at least 70% and less than 90%). For the same compound, the “I: velvetleaf, herbicidal effect (evaluation scale 0-5)” value (velvetleaf [25]) was 5 (mortality of 90% or above (nearly complete death)), the “E: giant foxtail, herbicidal effect (evaluation scale 0-5)” value (giant foxtail [26]) was 5 (mortality of 90% or above (nearly complete death)) and the “H: Italian ryegrass, herbicidal effect (evaluation scale 0-5)” value (Italian ryegrass [27]) was 5 (mortality of 90% or above (nearly complete death)). The “N: common chickweed, herbicidal effect (evaluation scale 0-5)” value (common chickweed [28]) was 5 (mortality of 90% or above (nearly complete death)), the “G: water foxtail, herbicidal effect (evaluation scale 0-5)” value (water foxtail [29]) was 5 (mortality of 90% or above (nearly complete death)) and the “J: common ragweed, herbicidal effect (evaluation scale 0-5)” value (common ragweed [30]) was 4 (mortality of at least 70% and less than 90%). For the same compound, the “a: transplanted rice, effect on crop (evaluation scale 0-5)” value (transplanted rice) was 0 (mortality of less than 5% (almost ineffective)).
With `CCOC(=O)N(c1ccccc1CN1COC2(CCC2)CC1=O)S(=O)(=O)C(F)(F)F` [II-63] the “L: common lambsquater, herbicidal effect” value (common lambsquater [1]) was 3 (mortality of at least 40% and less than 70%), the “D: large crabgrass, herbicidal effect” value (large crabgrass [2]) was 4 (mortality of at least 70% and less than 90%) and the “A: barnyardgrass, herbicidal effect” value (barnyardgrass [3]) was 5 (mortality of 90% or above (nearly complete death)). For the same compound, the “O: beadstraw, herbicidal effect” value (beadstraw [4]) was 3 (mortality of at least 40% and less than 70%), the “M: posumbu knotweed, herbicidal effect” value (posumbu knotweed [5]) was 4 (mortality of at least 70% and less than 90%) and the “K: redroot pigweed, herbicidal effect” value (redroot pigweed [6]) was 2 (mortality of at least 20% and less than 40%). For the same compound, the “I: velvetleaf, herbicidal effect” value (velvetleaf [7]) was 5 (mortality of 90% or above (nearly complete death)), the “E: giant foxtail, herbicidal effect” value (giant foxtail [8]) was 4 (mortality of at least 70% and less than 90%) and the “H: Italian ryegrass, herbicidal effect” value (Italian ryegrass [9]) was 4 (mortality of at least 70% and less than 90%). For the same compound, the “N: common chickweed, herbicidal effect” value (common chickweed [10]) was 4 (mortality of at least 70% and less than 90%), the “G: water foxtail, herbicidal effect” value (water foxtail [11]) was 5 (mortality of 90% or above (nearly complete death)) and the “J: common ragweed, herbicidal effect” value (common ragweed [12]) was 4 (mortality of at least 70% and less than 90%). For the same compound, the “B: bulrush, herbicidal effect” value (bulrush [13]) was 5 (mortality of 90% or above (nearly complete death)), the “A: barnyardgrass, herbicidal effect (evaluation scale 0-5)” value (barnyardgrass [14]) was 5 (mortality of 90% or above (nearly complete death)) and the “C: ducksalad, herbicidal effect” value (ducksalad [15]) was 5 (mortality of 90% or above (nearly complete death)). The “B: bulrush, herbicidal effect” value (bulrush [16]) was 5 (mortality of 90% or above (nearly complete death)), the “A: barnyardgrass, herbicidal effect (evaluation scale 0-5)” value (barnyardgrass [17]) was 5 (mortality of 90% or above (nearly complete death)) and the “C: ducksalad, herbicidal effect” value (ducksalad [18]) was 5 (mortality of 90% or above (nearly complete death)). For the same compound, the “L: common lambsquater, herbicidal effect (evaluation scale 0-5)” value (common lambsquater [19]) was 3 (mortality of at least 40% and less than 70%), the “D: large crabgrass, herbicidal effect (evaluation scale 0-5)” value (large crabgrass [20]) was 5 (mortality of 90% or above (nearly complete death)) and the “A: barnyardgrass, herbicidal effect (evaluation scale 0-5)” value (barnyardgrass [21]) was 5 (mortality of 90% or above (nearly complete death)). The “O: beadstraw, herbicidal effect (evaluation scale 0-5)” value (beadstraw [22]) was 4 (mortality of at least 70% and less than 90%), the “M: posumbu knotweed, herbicidal effect (evaluation scale 0-5)” value (posumbu knotweed [23]) was 4 (mortality of at least 70% and less than 90%) and the “K: redroot pigweed, herbicidal effect (evaluation scale 0-5)” value (redroot pigweed [24]) was 4 (mortality of at least 70% and less than 90%). The “I: velvetleaf, herbicidal effect (evaluation scale 0-5)” value (velvetleaf [25]) was 5 (mortality of 90% or above (nearly complete death)), the “E: giant foxtail, herbicidal effect (evaluation scale 0-5)” value (giant foxtail [26]) was 5 (mortality of 90% or above (nearly complete death)) and the “H: Italian ryegrass, herbicidal effect (evaluation scale 0-5)” value (Italian ryegrass [27]) was 4 (mortality of at least 70% and less than 90%). For the same compound, the “N: common chickweed, herbicidal effect (evaluation scale 0-5)” value (common chickweed [28]) was 5 (mortality of 90% or above (nearly complete death)), the “G: water foxtail, herbicidal effect (evaluation scale 0-5)” value (water foxtail [29]) was 5 (mortality of 90% or above (nearly complete death)) and the “J: common ragweed, herbicidal effect (evaluation scale 0-5)” value (common ragweed [30]) was 4 (mortality of at least 70% and less than 90%). For the same compound, the “a: transplanted rice, effect on crop (evaluation scale 0-5)” value (transplanted rice) was 1 (mortality of at least 5% and less than 20%).
